How the values were obtained:
[1] = Inhibition of serum-induced proliferation of human TCC97-7 cells carrying FGFR3 Ser249Cys mutation at 1 uM after 3 days; format: functional; details: TCC97-7, 72 h
[2] = Inhibition of serum-induced proliferation of human TCC97-7 cells carrying FGFR3 Ser249Cys mutation at 10 uM after 3 days; format: functional; details: TCC97-7, 72 h
[3] = test system: Fibroblast growth factor receptor 3 (Homo sapiens), P22607 [S249C]; assay: Antagonist activity against FGFR3 Ser249Cys mutant in human TCC97-7 cells cultured in serum-supplemented medium assessed as reduction in ATP content at 1 um after 3 days by cell titer-Glo luminescent cell viability assay; format: cell-based
[4] = test system: Fibroblast growth factor receptor 3 (Homo sapiens), P22607 [S249C]; assay: Antagonist activity against FGFR3 Ser249Cys mutant in human TCC97-7 cells cultured in serum-supplemented medium assessed as reduction in ATP content at 10 um after 3 days by cell titer-Glo luminescent cell viability assay; format: cell-based

Fibroblast growth factor receptor 3 (Homo sapiens), P22607 [S249C], sequence (P22607 whole entry S249C): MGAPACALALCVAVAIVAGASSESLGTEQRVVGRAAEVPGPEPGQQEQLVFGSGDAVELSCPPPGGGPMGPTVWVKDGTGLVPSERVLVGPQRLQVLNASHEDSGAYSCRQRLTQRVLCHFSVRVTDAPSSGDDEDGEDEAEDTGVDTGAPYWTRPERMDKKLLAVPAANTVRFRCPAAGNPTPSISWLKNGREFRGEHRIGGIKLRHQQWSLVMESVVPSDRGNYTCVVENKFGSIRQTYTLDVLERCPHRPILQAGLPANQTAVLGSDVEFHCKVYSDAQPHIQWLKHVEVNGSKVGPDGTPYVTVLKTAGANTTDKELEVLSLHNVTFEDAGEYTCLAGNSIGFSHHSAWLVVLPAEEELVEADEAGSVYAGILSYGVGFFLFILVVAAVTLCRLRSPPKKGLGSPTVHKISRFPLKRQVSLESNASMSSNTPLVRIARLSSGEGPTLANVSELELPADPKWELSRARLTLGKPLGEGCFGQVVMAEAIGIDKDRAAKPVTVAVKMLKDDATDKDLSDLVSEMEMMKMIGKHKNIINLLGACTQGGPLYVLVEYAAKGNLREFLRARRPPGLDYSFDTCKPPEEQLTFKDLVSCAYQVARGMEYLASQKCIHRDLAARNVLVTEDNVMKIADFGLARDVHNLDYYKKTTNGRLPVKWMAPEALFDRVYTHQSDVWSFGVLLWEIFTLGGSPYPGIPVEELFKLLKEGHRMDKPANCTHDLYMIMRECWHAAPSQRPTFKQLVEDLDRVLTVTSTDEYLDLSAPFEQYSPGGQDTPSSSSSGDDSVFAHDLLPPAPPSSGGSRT

Cn1nc(-c2ccccc2)c2c(C(F)(F)F)cc(-c3ccc(C(=O)O)cc3)nc21
inhibition at 1 µM [1]: 8%
inhibition at 10 µM [2]: 33%
inhibition [3]: 17%
inhibition [4]: 40%

Cn1nc(-c2ccccc2)c2c(C(F)(F)F)cc(-c3cccc(C(N)=O)c3)nc21
inhibition at 1 µM [1]: 8%
inhibition at 10 µM [2]: 91.6%
inhibition [3]: 10.9%
inhibition [4]: 41.1%

O=c1[nH]c2ccc(-c3cc(C(F)(F)F)c4c(-c5ccccc5)n[nH]c4n3)cc2[nH]1
inhibition at 1 µM [1]: -3%
inhibition at 10 µM [2]: 29%
inhibition [4]: 19%

O=C(c1cccc(-c2cc(C(F)F)c3c(-c4ccccc4)n[nH]c3n2)c1)N1CCCC1
inhibition at 1 µM [1]: 16.2%
inhibition at 10 µM [2]: 83.9%
inhibition [3]: 26.9%
inhibition [4]: 90.5%

Reference: ChEMBL document CHEMBL3576772, “Fibroblast Growth Factor Receptor 3 (FGF-R3): A Promising Therapeutic Target for the Treatment of Bladder Cancer” (2015)
